# Data reported in US12599596B2, “Anti-tumor pharmaceutical composition based on immune checkpoint blockade and use thereof” (Shanghai Hui Tian Jin Ze Biotech Co., Ltd., priority 2023, dated 2026).
# How the values were obtained:
# MC38 colon cancer cells = assay: MC38 subcutaneous tumor model, curcumin-administrated groups, Embodiment 4; type: in vivo, C57BL/6 mice; conditions: CBD 100 mg/kg, curcumin 50 mg/kg, piperine 1 mg/kg, vitamin E 50 mg/kg, thymosin 2 mg/kg; vs control
# Procedure: MC38 colon cancer cells were inoculated into 6-week-old female C57BL/6 mice (1×10^6 cells/mouse) to establish a subcutaneous tumor model. After the tumor volume reached 50 mm^3, the mice in the artemisinin-administered groups were grouped and administered with the following pharmaceutical combinations: (1) control group, (2) CBD (100 mg/kg)+vitamin E(α-tocopherol) (50 mg/kg)+thymosin (2 mg/kg) group, and (3) CBD (100 mg/kg)+artemisinin (20 mg/kg)+vitamin E(α-tocopherol) (50 mg/kg)+thymosin (2 mg/kg). The mice in curcumin-administrated group were grouped and administered with the following pharmaceutical combinations: (1) control group, (2) CBD (100 mg/kg) group, (3) curcumin (50 mg/kg)+piperine (1 mg/kg) group, (4) CBD (100 mg/kg)+curcumin (50 mg/kg)+piperine group (1 mg/kg), and (5) CBD (100 mg/kg)+curcumin (50 mg/kg)+piperine (1 mg/kg)+vitamin E(α-tocopherol) (50 mg/kg)+thymosin (2 mg/kg).
# The tumor growth volume of the mice was monitored once every 2 days. The tumor volume was calculated as follows: tumor volume (mm^3)=0.5×(length)x(width)^2. The mice were sacrificed 14 days after drug administration, and the tumors were dissected. […]
# RKO cells = assay: In vitro killing of tumor cells by T cells (NK-92) with CBD, crystal violet; type: cell-based; conditions: CBD 5, 10, 20 μM 12 h, then NK-92 cells 1:500, 24 h; vs control
# Procedure: RKO cells in the logarithmic growth phase were inoculated into a 12-well plate at a density of 5×10^4 cells/mL and placed in a 5% CO2 incubator for growth adhering to a wall overnight. The supernatant was removed, CBD at different concentrations (0 μM, 5 μM, 10 μM, and 20 μM) was added, and the cells were coincubated for 12 h. NK-92 cells (T cells) were added at 1:500, the cells were cultured for 24 h, and a control group without the NK-92 cells was set at the same time. The supernatant was removed, PBS was used for washing 2 times, and 4% paraformaldehyde was added to fix the cells. Then, PBS was used for washing 2 times, crystal violet was added for dyeing for 30 min, and finally, redundant crystal violet was washed away with PBS, and photographing was performed to collect the data.
# [1] = test system: PD-L1 in RKO colorectal cancer cells; assay: PD-L1 expression by Western blotting; type: cell-based; conditions: concentration-dependent at 5, 10, 20 μM, 24 h
# Procedure: (§1) Different types of well-grown tumor cells (RKO colorectal cancer cells, H1975 lung cancer cells, and A549 lung cancer cells) with a density of 80% or more were respectively spread on a 6-well plate at a density of 5×10^4 cells/well, the volume of the suspension in each well was 2 mL, and the cells were subsequently placed in an incubator at 37° C. for culture. […] After the cells were continuously cultured for 24 h, the culture was terminated, and subsequent detection was conducted.
# (§2) After the culture was terminated, the cells were collected and washed with cold PBS 2 times. After the PBS residue was removed, a proper amount of cell lysate was added for cracking, and the cells were incubated on ice for 15 min and then centrifuged on a 4° C. centrifuge at 12,000 rpm for 15 min. The supernatant was carefully aspirated, the protein concentration was measured via the BCA method, a corresponding amount of loading buffer was added, the cells were evenly shaken and incubated in a 100° C. water bath for 10 min, and finally, the sample was subjected to a protein immunoblotting experiment.
# [2] = test system: PD-L1 in A549 lung cancer cells; assay: PD-L1 expression by Western blotting; type: cell-based; conditions: concentration-dependent at 5, 10, 20 μM, 24 h
# Procedure: as §1, §2
# [3] = test system: PD-L1 in H1975 lung cancer cells; assay: PD-L1 expression by Western blotting; type: cell-based; conditions: concentration-dependent at 5, 10, 20 μM, 24 h
# Procedure: as §1, §2
structure (smiles),measurement,setting,value
"C=C(C)[C@@H]1CCC(C)=C[C@H]1c1c(O)cc(CCCCC)cc1O [CBD, cannabidiol]",tumor growth / anti-tumor effect in words,MC38 colon cancer cells,inhibited to a certain degree
same,viability of RKO cells in CBD+T cells coculture,RKO cells,significantly reduced the viability of RKO cells
same,expression of PD-L1 (Western blotting),[1],significantly inhibited the expression of PD-L1
same,expression of PD-L1 (Western blotting),[2],significantly inhibited the expression of PD-L1
same,expression of PD-L1 (Western blotting),[3],significantly inhibited the expression of PD-L1
